Results taken from patent publication US20040053872A1, “New sequences” (priority 2000, published 2004).
Strand notation (5' to 3'): a small letter for the sugar, then the base; units joined by * are phosphorothioate-linked, units joined directly phosphodiester-linked; [ ] holds rarer units or linkages, { } end groups; capitals alone tell only the bases. r = 2'-OH (RNA)

Tested on: Mut1 (RNase H inactive mutant of HIV-1 RT)
Assay: Gel mobility shifts in native polyacrylamide gel electrophoresis (PAGE)
Format: binding
Details: native 20% PAGE; ammonium sulphate up to […]
Source text: In the following experiment, the terms “34-mer” and “35-mer” refer to SEQ ID NO:3 (produced in example A1 above) and SEQ ID NO:4 (produced in example A2 above), respectively. […] Natural RT molecules have an RNase H activity which normally cleaves RNA molecules. […] This mutant is produced according to the method given in Schatz, O., Cromme, F. V., Grüninger-Leitch, F. and Le Grice, S. F. J., Febs Letter. Vol.257, No.2 p.311-314. This RT-mutant is further on referred to as Mut1. The following experiments are carried out:
2. Gel mobility shifts in polyacrylamide gel electrophoresis (PAGE) experiments.
a) Native 20% PAGE gel is run at 4-5° C. Samples are incubated at 4° C. in 50 mM hepes buffer and 5 mM magnesium chloride and varying salt concentrations as indicated below.
Samples are incubated for 90 min at 4° C. prior to a further 10 min incubation at 4° C. with ammonium sulphate and/or KCl. Samples applied to lanes 4 and 5 have twice the amount of 34-mer used for the other samples.
b) Native 20% PAGE gel run at 4-5° C. Samples are incubated at 4° C. in 50 mM hepes buffer and 5 mM magnesium chloride, with varying concentrations of ammonium sulphate.
Native 20% PAGE gel is run at 4-5° C. Samples are incubated at 4° C. in 50 mM hepes buffer, 15 mM manganese sulphate, 1 mM EDTA and 0.25 mM EGTA.
Samples are incubated 10 min at room temperature prior to a 60 min incubation at 4° C. One μl of sample solution is applied per lane. Electrophoresis is conducted with up to 400 volts while cooling to approximately 4° C. After 0.209 kWh the gel is silver stained.

“substance 198: 15-mer RNA phosphorothioate with the base sequence of tRNALys3 anticodon stem and loop, SEQ ID NO:7 (rC*rA*rG*rA*rC*rU*rU*rU*rU*rA*rA*rU*rC*rU*rG) [reference compound]” was tested, and the “Complex with Mut1 at high salt concentrations” value was “dissociates from Mut1”.
